Laboratory results reported in PubChem BioAssay AID2060511 (Molecular Pharmacology Branch, DTP, NCI, 2025).
pIC50: −log10 of the molar value.

System: 422866-222-R5-J1-PDC spheroids with HUVEC/MSC, viability
Experiment: Anticancer human tumor 422866-222-R5-J1-PDC patient-derived pancreatic adenocarcinoma cell line growth inhibition [GQUAD]
Conditions: for pIC50: curve of first compound; for viability, T/C: stronger effect = lower value
How it was run: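 Multi-cell-type spheroids of tumor cells with HUVEC and mesenchymal stem cells, treated with drug combinations. Concentrations descend in half-log steps from near clinical Cmax, or from 10 microM where Cmax is unknown; viability read-out.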

[1] = second compound 0.0316 µM, first compound 0.0316 µM
[2] = second compound 0.0316 µM, first compound 0.1 µM
[3] = second compound 0.0316 µM, first compound 0.316 µM
[4] = second compound 0.0316 µM, first compound 1 µM
[5] = second compound 0.0316 µM, first compound 3.16 µM
[6] = second compound 0.0316 µM, first compound 10 µM
[7] = second compound 0.1 µM, first compound 0.0316 µM
[8] = second compound 0.1 µM, first compound 0.1 µM
[9] = second compound 0.1 µM, first compound 0.316 µM
[10] = second compound 0.1 µM, first compound 1 µM
[11] = second compound 0.1 µM, first compound 3.16 µM
[12] = second compound 0.1 µM, first compound 10 µM
[13] = second compound 0.316 µM, first compound 0.0316 µM
[14] = second compound 0.316 µM, first compound 0.1 µM
[15] = second compound 0.316 µM, first compound 0.316 µM
[16] = second compound 0.316 µM, first compound 1 µM
[17] = second compound 0.316 µM, first compound 3.16 µM
[18] = second compound 0.316 µM, first compound 10 µM
[19] = second compound 1 µM, first compound 0.0316 µM
[20] = second compound 1 µM, first compound 0.1 µM
[21] = second compound 1 µM, first compound 0.316 µM
[22] = second compound 1 µM, first compound 1 µM
[23] = second compound 1 µM, first compound 3.16 µM
[24] = second compound 1 µM, first compound 10 µM
[25] = second compound 3.16 µM, first compound 0.0316 µM
[26] = second compound 3.16 µM, first compound 0.1 µM
[27] = second compound 3.16 µM, first compound 0.316 µM
[28] = second compound 3.16 µM, first compound 1 µM
[29] = second compound 3.16 µM, first compound 3.16 µM
[30] = second compound 3.16 µM, first compound 10 µM
[31] = second compound 10 µM, first compound 0.0316 µM
[32] = second compound 10 µM, first compound 0.1 µM
[33] = second compound 10 µM, first compound 0.316 µM
[34] = second compound 10 µM, first compound 1 µM
[35] = second compound 10 µM, first compound 3.16 µM
[36] = second compound 10 µM, first compound 10 µM
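Also: spheroids exposed to compounds for seven days before reading.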
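For viability, T/C in this document: percent viability relative to DMSO vehicle control taken as 100%.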

COc1cccc2c1C(=O)c1c(O)c3c(c(O)c1C2=O)CC(O)(C(=O)CO)CC3OC1CC(N)C(O)C(C)O1 (centres undefined) + Cc1[nH]c2ccc(F)cc2c1-c1nc2c3cccnc3c3ncccc3c2[nH]1 showed a pIC50 (second compound 0.0316 µM) of 6.32, a pIC50 (second compound 0.1 µM) of 6.11 and a pIC50 (second compound 0.316 µM) of 6.19. For the same compound, the pIC50 (second compound 1 µM) was 6.33, the pIC50 (second compound 3.16 µM) was 6.46 and the pIC50 (second compound 10 µM) was 6.28. It also gave a viability, T/C [1] of 108%, a viability, T/C [2] of 70.2% and a viability, T/C [3] of 63.6%. The viability, T/C [4] was 37.3%, the viability, T/C [5] was 30% and the viability, T/C [6] was 34.7%. It also gave a viability, T/C [7] of 113%, a viability, T/C [8] of 65.6% and a viability, T/C [9] of 69.2%. It also gave a viability, T/C [10] of 53.4%, a viability, T/C [11] of 34% and a viability, T/C [12] of 35%. It also gave a viability, T/C [13] of 92%, a viability, T/C [14] of 67.9% and a viability, T/C [15] of 54%. For the same compound, the viability, T/C [16] was 55.5%, the viability, T/C [17] was 31.7% and the viability, T/C [18] was 35.9%. The viability, T/C [19] was 93.9%, the viability, T/C [20] was 65.7% and the viability, T/C [21] was 54.5%. It also gave a viability, T/C [22] of 46.3%, a viability, T/C [23] of 37.2% and a viability, T/C [24] of 36.1%. For the same compound, the viability, T/C [25] was 73.4%, the viability, T/C [26] was 65.6% and the viability, T/C [27] was 48.1%. For the same compound, the viability, T/C [28] was 45.8%, the viability, T/C [29] was 31.6% and the viability, T/C [30] was 37.8%. It also gave a viability, T/C [31] of 77.7%, a viability, T/C [32] of 64.9% and a viability, T/C [33] of 52.5%. It also gave a viability, T/C [34] of 48%, a viability, T/C [35] of 34.3% and a viability, T/C [36] of 30.4%.
In the case of Cc1cccc(N(C)C(=O)C2C(O)CCN2c2nc(C)cc(C(F)(F)F)c2C#N)c1 (centres undefined) + Cc1[nH]c2ccc(F)cc2c1-c1nc2c3cccnc3c3ncccc3c2[nH]1, the pIC50 (second compound 0.0316 µM) was < 5.00, the pIC50 (second compound 0.1 µM) was < 5.00 and the pIC50 (second compound 0.316 µM) was < 5.00. For the same compound, the pIC50 (second compound 1 µM) was < 5.00, the pIC50 (second compound 3.16 µM) was < 5.00 and the pIC50 (second compound 10 µM) was < 5.00. It also gave a viability, T/C [1] of 107%, a viability, T/C [2] of 95.2% and a viability, T/C [3] of 102%. For the same compound, the viability, T/C [4] was 79.5%, the viability, T/C [5] was 116% and the viability, T/C [6] was 108%. It also gave a viability, T/C [7] of 88.8%, a viability, T/C [8] of 92.2% and a viability, T/C [9] of 116%. For the same compound, the viability, T/C [10] was 82.8%, the viability, T/C [11] was 99.9% and the viability, T/C [12] was 107%. The viability, T/C [13] was 89.9%, the viability, T/C [14] was 92.9% and the viability, T/C [15] was 97.4%. The viability, T/C [16] was 98.3%, the viability, T/C [17] was 115% and the viability, T/C [18] was 114%. It also gave a viability, T/C [19] of 92.7%, a viability, T/C [20] of 101% and a viability, T/C [21] of 111%. The viability, T/C [22] was 103%, the viability, T/C [23] was 120% and the viability, T/C [24] was 93.1%. For the same compound, the viability, T/C [25] was 80.2%, the viability, T/C [26] was 96.1% and the viability, T/C [27] was 89.6%. It also gave a viability, T/C [28] of 84.1%, a viability, T/C [29] of 104% and a viability, T/C [30] of 96.4%. The viability, T/C [31] was 82.5%, the viability, T/C [32] was 86.8% and the viability, T/C [33] was 100%. The viability, T/C [34] was 86.9%, the viability, T/C [35] was 90.1% and the viability, T/C [36] was 96.9%.
